Tests used:
Assay type in all cases: biochemical
[1] = target: T1, Met (Homo sapiens, UniProt P08581); assay: AlphaScreen kinase assay, Met; details: read-out: IC50, activity toward kinase Met
T1 construct: P1818.pETN6 BI-PTP MET G1056-G1364-X WT; His6 (N); made in house; host or cells: E. coli (PTP1B co-expressed)
Method in brief: (§1)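 Biotinylated peptide substrate phosphorylation detected by AlphaScreen with phospho-specific antibody acceptor beads and streptavidin donor beads. Compounds tested as 8-point 1:3 serial dilutions from 20 mM DMSO stocks.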

[2] = target: T2, Jnk1 (Homo sapiens, UniProt P45983); assay: AlphaScreen kinase assay, Jnk1; details: read-out: IC50, activity toward kinase Jnk1
T2 construct: purchased Upstate Biotechnology
T2 sequence (P45983 whole entry): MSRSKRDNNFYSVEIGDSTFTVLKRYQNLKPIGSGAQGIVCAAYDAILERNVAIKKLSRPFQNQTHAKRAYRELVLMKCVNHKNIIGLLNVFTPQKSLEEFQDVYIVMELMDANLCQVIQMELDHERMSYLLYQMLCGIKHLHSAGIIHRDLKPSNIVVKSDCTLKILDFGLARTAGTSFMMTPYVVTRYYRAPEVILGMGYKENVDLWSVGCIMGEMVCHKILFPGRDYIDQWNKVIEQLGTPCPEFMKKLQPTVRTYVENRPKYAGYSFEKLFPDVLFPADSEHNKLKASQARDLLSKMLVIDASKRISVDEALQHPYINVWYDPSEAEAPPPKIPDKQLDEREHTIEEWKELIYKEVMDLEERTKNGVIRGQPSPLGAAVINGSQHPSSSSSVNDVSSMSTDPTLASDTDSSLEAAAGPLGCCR

[3] = target: T3, Stk6 (Homo sapiens, UniProt O14965); assay: Z'-Lyte FRET kinase assay (Invitrogen), Stk6; details: read-out: IC50, activity toward kinase Stk6
T3 construct: purchased Invitrogen (Carlsbad, Calif.), screening service
T3 sequence (O14965 1-403): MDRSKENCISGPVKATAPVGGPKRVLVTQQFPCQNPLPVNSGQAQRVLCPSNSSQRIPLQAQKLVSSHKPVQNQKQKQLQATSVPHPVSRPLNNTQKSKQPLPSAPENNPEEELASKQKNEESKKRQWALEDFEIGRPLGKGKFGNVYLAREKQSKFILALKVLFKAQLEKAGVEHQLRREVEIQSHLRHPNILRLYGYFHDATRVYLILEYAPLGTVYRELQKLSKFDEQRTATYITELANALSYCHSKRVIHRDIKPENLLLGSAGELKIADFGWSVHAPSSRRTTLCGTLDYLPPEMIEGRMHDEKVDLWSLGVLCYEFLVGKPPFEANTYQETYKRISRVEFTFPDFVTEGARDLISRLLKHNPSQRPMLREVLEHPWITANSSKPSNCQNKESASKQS

[4] = target: T4, Jnk3 (Homo sapiens, UniProt P53779); assay: AlphaScreen kinase assay, Jnk3; details: read-out: IC50, activity toward kinase Jnk3
T4 construct: purchased Upstate Biotechnology
T4 sequence (P53779 whole entry): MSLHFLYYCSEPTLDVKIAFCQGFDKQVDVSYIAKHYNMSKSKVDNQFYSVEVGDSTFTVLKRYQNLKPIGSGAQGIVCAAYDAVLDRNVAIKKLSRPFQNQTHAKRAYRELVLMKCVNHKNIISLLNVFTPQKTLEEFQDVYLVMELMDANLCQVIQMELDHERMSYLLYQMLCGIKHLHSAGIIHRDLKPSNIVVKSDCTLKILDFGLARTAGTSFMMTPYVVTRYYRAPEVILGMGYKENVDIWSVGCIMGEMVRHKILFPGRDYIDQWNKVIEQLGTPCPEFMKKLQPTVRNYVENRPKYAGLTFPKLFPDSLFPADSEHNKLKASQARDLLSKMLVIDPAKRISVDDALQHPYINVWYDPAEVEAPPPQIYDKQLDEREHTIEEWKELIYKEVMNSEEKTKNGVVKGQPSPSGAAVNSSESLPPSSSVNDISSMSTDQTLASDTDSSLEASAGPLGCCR

[5] = target: T5, Abl (Homo sapiens, UniProt P00519); assay: AlphaScreen kinase assay, Abl; details: read-out: activity toward kinase Abl, IC50
T5 construct: P1121. pET-SPEC BI-PTP Abl G227-V515-X; His6 (N); made in house; host or cells: E. coli (PTP1B co-expressed)
T5 sequence (P00519 with tags, fused parts or gaps): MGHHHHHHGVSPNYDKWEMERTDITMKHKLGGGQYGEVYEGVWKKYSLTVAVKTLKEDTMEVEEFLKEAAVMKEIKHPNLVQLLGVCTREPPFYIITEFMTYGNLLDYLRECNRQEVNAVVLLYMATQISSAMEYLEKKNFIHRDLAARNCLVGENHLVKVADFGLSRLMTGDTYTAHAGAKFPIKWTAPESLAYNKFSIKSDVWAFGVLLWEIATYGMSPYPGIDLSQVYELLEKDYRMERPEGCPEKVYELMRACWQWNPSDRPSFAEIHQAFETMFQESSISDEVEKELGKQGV
Method in brief: as §1

[6] = target: T6, Src (Homo sapiens, UniProt P12931); assay: AlphaScreen kinase assay, Src; details: read-out: IC50, activity toward kinase Src
T6 construct: P1144. pET-N6 BI-PTP SRC V86-L536-X; made in house
T6 sequence (P12931 with tags, fused parts or gaps): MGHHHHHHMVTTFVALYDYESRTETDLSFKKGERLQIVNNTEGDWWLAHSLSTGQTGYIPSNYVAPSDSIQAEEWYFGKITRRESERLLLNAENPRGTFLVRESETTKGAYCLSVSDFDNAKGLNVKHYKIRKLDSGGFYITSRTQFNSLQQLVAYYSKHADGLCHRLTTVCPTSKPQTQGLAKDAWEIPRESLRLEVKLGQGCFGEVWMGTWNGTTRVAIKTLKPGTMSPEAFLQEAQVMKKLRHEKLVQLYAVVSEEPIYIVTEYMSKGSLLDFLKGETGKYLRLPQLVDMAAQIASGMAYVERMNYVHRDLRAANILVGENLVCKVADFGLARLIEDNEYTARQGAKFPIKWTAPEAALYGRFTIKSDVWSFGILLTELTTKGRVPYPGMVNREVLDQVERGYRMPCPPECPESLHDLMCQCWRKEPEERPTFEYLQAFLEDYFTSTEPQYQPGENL

[7] = target: T7, Fak (Homo sapiens, UniProt Q05397); assay: AlphaScreen kinase assay, Fak; details: read-out: IC50, activity toward kinase Fak
T7 construct: P1358.pFastBacHtb FAK S411-Q686-X; His6 with pFastBacHTb leader (TEV site) (N); made in house; host or cells: Sf9 (baculovirus)
T7 sequence (Q05397 411-686): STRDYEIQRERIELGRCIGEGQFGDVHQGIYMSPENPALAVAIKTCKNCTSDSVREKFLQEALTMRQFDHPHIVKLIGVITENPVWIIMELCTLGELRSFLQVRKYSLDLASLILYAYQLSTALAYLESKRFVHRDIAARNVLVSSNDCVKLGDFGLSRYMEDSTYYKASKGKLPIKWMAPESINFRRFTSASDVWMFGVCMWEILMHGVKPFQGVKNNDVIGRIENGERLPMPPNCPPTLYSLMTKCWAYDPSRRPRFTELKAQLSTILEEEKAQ

T1 sequence (P08581 with tags, fused parts or gaps): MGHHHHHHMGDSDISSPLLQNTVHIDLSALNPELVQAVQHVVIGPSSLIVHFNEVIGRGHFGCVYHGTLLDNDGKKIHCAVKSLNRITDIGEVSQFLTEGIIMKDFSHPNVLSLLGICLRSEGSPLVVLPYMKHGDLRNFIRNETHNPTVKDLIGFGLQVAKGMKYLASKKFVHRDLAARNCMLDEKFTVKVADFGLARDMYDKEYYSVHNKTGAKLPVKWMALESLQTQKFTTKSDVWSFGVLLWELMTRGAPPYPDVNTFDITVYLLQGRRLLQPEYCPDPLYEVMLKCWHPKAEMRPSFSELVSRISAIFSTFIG

SMILES | IC50 [1] | IC50 [2] | IC50 [3] | IC50 [4] | IC50 [5] | IC50 [6] | IC50 [7]
Oc1cccc(Cc2c[nH]c3ncc(-c4cccs4)cc23)c1F [Compound P-0052, 2-Fluoro-3-(5-thiophen-2-yl-1H-pyrrolo[2,3-b]pyridin-3-ylmethyl)-phenol] | ≤ 10 µM | ≤ 10 µM | ≤ 10 µM | ≤ 10 µM | – | – | –
CCCS(=O)(=O)Nc1ccc(F)c(C(=O)c2c[nH]c3ncccc23)c1F [Compound P-0007, Propane-1-sulfonic acid [2,4-difluoro-3-(1H-pyrrolo[2,3-b]pyridine-3-carbonyl)-phenyl]-amide] | – | – | ≤ 10 µM | – | ≤ 10 µM | ≤ 10 µM | ≤ 10 µM
CCCS(=O)(=O)Nc1ccc(F)c(C(=O)c2c[nH]c3ncc(OC)cc23)c1F [Compound P-0806, Propane-1-sulfonic acid [2,4-difluoro-3-(5-methoxy-1H-pyrrolo[2,3-b]pyridine-3-carbonyl)-phenyl]-amide] | – | – | ≤ 10 µM | – | ≤ 10 µM | ≤ 10 µM | ≤ 10 µM
CCCCNC(=O)Nc1ccc(F)c(C(=O)c2c[nH]c3ncc(-c4cccnc4)cc23)c1F [Compound P-1318, 1-Butyl-3-[2,4-difluoro-3-(5-pyridin-3-yl-1H-pyrrolo[2,3-b]pyridine-3-carbonyl)-phenyl]-urea] | – | ≤ 10 µM | – | ≤ 10 µM | ≤ 10 µM | ≤ 10 µM | ≤ 10 µM
Oc1cccc(Cc2c[nH]c3ncc(-c4ccsc4)cc23)c1 [Compound P-0056] | – | ≤ 10 µM | ≤ 10 µM | ≤ 10 µM | ≤ 10 µM | – | –
COc1cc(OC)cc(C(=O)c2c[nH]c3ncc(-c4cccc(NS(C)(=O)=O)c4)cc23)c1 [Compound P-1426, N-{3-[3-(3,5-Dimethoxy-benzoyl)-1H-pyrrolo[2,3-b]pyridin-5-yl]-phenyl}-methanesulfonamide] | – | – | ≤ 10 µM | – | ≤ 10 µM | – | –
CCCC(=O)Nc1ccc(F)c(Cc2c[nH]c3ncc(-c4cccnc4)cc23)c1F [Compound P-1280] | ≤ 10 µM | ≤ 10 µM | ≤ 10 µM | ≤ 10 µM | – | ≤ 10 µM | ≤ 10 µM
Oc1ccc(F)c(Cc2c[nH]c3ncc(-c4cccnc4)cc23)c1F [Compound P-0078, 2,4-difluoro-3-(5-pyridin-3-yl-1H-pyrrolo[2,3-b]pyridin-3-ylmethyl)-phenol] | ≤ 10 µM | ≤ 10 µM | – | ≤ 10 µM | – | ≤ 10 µM | ≤ 10 µM
O=C(Nc1ccc(Cc2c[nH]c3ncccc23)cc1)Nc1cccc(C(F)(F)F)c1 [Compound P-0262, 1-[4-(1H-Pyrrolo[2,3-b]pyridin-3-ylmethyl)-phenyl]-3-(3-trifluoromethyl-phenyl)-urea] | ≤ 10 µM | – | – | – | – | – | –
Oc1cc(O)cc(Cc2c[nH]c3ncc(-c4ccsc4)cc23)c1 [Compound P-0093] | – | – | ≤ 10 µM | ≤ 10 µM | ≤ 10 µM | – | –
OC(c1c(F)ccc(F)c1F)c1c[nH]c2ncc(-c3cccnc3)cc12 (stereo not drawn) [Compound P-0101] | ≤ 10 µM | – | ≤ 10 µM | – | – | – | –
Oc1ccc(F)c(C(O)c2c[nH]c3ncc(-c4cccnc4)cc23)c1F (stereo not drawn) [Compound P-0009, 2,4-difluoro-3-[hydroxy-(5-pyridin-3-yl-1H-pyrrolo[2,3-b]pyridin-3-yl)-methyl]-phenol] | ≤ 10 µM | ≤ 10 µM | ≤ 10 µM | ≤ 10 µM | – | ≤ 10 µM | ≤ 10 µM

Second part, the molecule after the results:

IC50 [1] | IC50 [2] | IC50 [3] | IC50 [4] | IC50 [5] | IC50 [6] | IC50 [7] | SMILES
– | ≤ 10 µM | ≤ 10 µM | ≤ 10 µM | ≤ 10 µM | – | – | O=C(O)/C=C/c1cccc(-c2cnc3[nH]cc(C(=O)c4ccccc4F)c3c2)c1 [Compound P-0033]
≤ 10 µM | ≤ 10 µM | – | ≤ 10 µM | – | ≤ 10 µM | – | CS(=O)(=O)Nc1cccc(-c2cnc3[nH]cc(C(=O)c4cccc(O)c4F)c3c2)c1 [Compound P-0038, N-{3-[3-(2-Fluoro-3-hydroxy-benzoyl)-1H-pyrrolo[2,3-b]pyridin-5-yl]-phenyl}-methanesulfonamide]
≤ 10 µM | ≤ 10 µM | – | ≤ 10 µM | – | ≤ 10 µM | ≤ 10 µM | O=C(c1cccc(O)c1F)c1c[nH]c2ncc(-c3cccnc3)cc12 [Compound P-0027, (2-Fluoro-3-hydroxy-phenyl)-(5-pyridin-3-yl-1H-pyrrolo[2,3-b]pyridin-3-yl)-methanone]
≤ 10 µM | ≤ 10 µM | ≤ 10 µM | ≤ 10 µM | – | – | – | COc1ccc(C(=O)c2c[nH]c3ncc(-c4cccc(/C=C/C(=O)O)c4)cc23)c(Cl)c1 [Compound P-0015]
≤ 10 µM | ≤ 10 µM | – | ≤ 10 µM | – | ≤ 10 µM | ≤ 10 µM | NC(=O)c1cccc(-c2cnc3[nH]cc(C(=O)c4cccc(O)c4F)c3c2)c1 [Compound P-0034, 3-[3-(2-Fluoro-3-hydroxy-benzoyl)-1H-pyrrolo[2,3-b]pyridin-5-yl]benzamide]
≤ 10 µM | ≤ 10 µM | ≤ 10 µM | – | – | ≤ 10 µM | – | Cc1c(NS(C)(=O)=O)cccc1C(=O)c1c[nH]c2ncc(-c3ccccc3)cc12 [Compound P-0082, N-[2-Methyl-3-(5-phenyl-1H-pyrrolo[2,3-b]pyridine-3-carbonyl)-phenyl]-methanesulfonamide]
– | ≤ 10 µM | ≤ 10 µM | ≤ 10 µM | ≤ 10 µM | ≤ 10 µM | – | Cc1ccc(F)cc1C(=O)c1c[nH]c2ncc(-c3cccc(N)c3)cc12 [Compound P-0040]
≤ 10 µM | ≤ 10 µM | ≤ 10 µM | ≤ 10 µM | – | ≤ 10 µM | ≤ 10 µM | CC(=O)Nc1cccc(-c2cnc3[nH]cc(C(=O)c4cccc(O)c4F)c3c2)c1 [Compound P-0035, N-{3-[3-(2-Fluoro-3-hydroxy-benzoyl)-1H-pyrrolo[2,3-b]pyridin-5-yl]-phenyl}-acetamide]
– | ≤ 10 µM | ≤ 10 µM | – | ≤ 10 µM | ≤ 10 µM | ≤ 10 µM | COc1cccc(C(=O)c2c[nH]c3ncc(-c4cccc(NC(C)=O)c4)cc23)c1F [Compound P-1336, N-{3-[3-(2-Fluoro-3-methoxy-benzoyl)-1H-pyrrolo[2,3-b]pyridin-5-yl]-phenyl}-acetamide]
– | ≤ 10 µM | ≤ 10 µM | ≤ 10 µM | ≤ 10 µM | ≤ 10 µM | – | O=C(O)/C=C/c1cccc(-c2cnc3[nH]cc(C(=O)c4cc(O)ccc4F)c3c2)c1 [Compound P-0010]
– | ≤ 10 µM | – | ≤ 10 µM | ≤ 10 µM | ≤ 10 µM | ≤ 10 µM | O=C(c1cccc(O)c1)c1c[nH]c2ncc(-c3cccs3)cc12 [Compound P-0196]
– | ≤ 10 µM | ≤ 10 µM | ≤ 10 µM | ≤ 10 µM | ≤ 10 µM | ≤ 10 µM | O=C(c1cc(O)ccc1F)c1c[nH]c2ncc(-c3ccccc3)cc12 [Compound P-0045]
≤ 10 µM | ≤ 10 µM | – | ≤ 10 µM | – | ≤ 10 µM | ≤ 10 µM | Cc1c(O)cccc1C(=O)c1c[nH]c2ncc(-c3cccs3)cc12 [Compound P-0114, (3-Hydroxy-2-methyl-phenyl)-(5-thiophen-2-yl-1H-pyrrolo[2,3b]pyridin-3-yl)-methanone]
≤ 10 µM | ≤ 10 µM | – | ≤ 10 µM | – | ≤ 10 µM | ≤ 10 µM | Cc1c(O)cccc1C(=O)c1c[nH]c2ncc(-c3ccccc3)cc12 [Compound P-0016, (3-Hydroxy-2-methyl-phenyl)-(5-phenyl-1H-pyrrolo[2,3b]pyridin-3-yl)-methanone]
– | ≤ 10 µM | ≤ 10 µM | ≤ 10 µM | ≤ 10 µM | ≤ 10 µM | ≤ 10 µM | O=C(c1cc(O)ccc1F)c1c[nH]c2ncc(-c3cccs3)cc12 [Compound P-0032]

— patent US8415469B2, “Compounds and methods for kinase modulation, and indications therefor” (Plexxikon Inc., priority 2005, dated 2013)
